Measurements published in US20220104493A1, “HERBICIDAL COMPOUNDS” (SYNGENTA CROP PROTECTION AG, priority 2019, published 2022).

How the values were obtained:
Assay in all cases: Post-emergence efficacy, Method A
Format in all cases: in vivo
[1] = system: Digitaria sanguinalis (DIGSA); conditions: 500 g/Ha, 100=total damage to plant, 0=no damage, evaluated after 7 and 14 days, read-out: Control of weed species after post-emergence application, DIGSA
[2] = system: Chenopodium album (CHEAL); conditions: 500 g/Ha, 100=total damage to plant, 0=no damage, evaluated after 7 and 14 days, read-out: Control of weed species after post-emergence application, CHEAL
Setaria faberi (SETFA) = conditions: 500 g/Ha, 100=total damage to plant, 0=no damage, evaluated after 7 and 14 days, read-out: Control of weed species after post-emergence application, SETFA
Eleusine indica (ELEIN) = conditions: 500 g/Ha, 100=total damage to plant, 0=no damage, evaluated after 7 and 14 days, read-out: Control of weed species after post-emergence application, ELEIN
[3] = system: Euphorbia heterophylla (EPHHL); conditions: 500 g/Ha, 100=total damage to plant, 0=no damage, evaluated after 7 and 14 days, read-out: Control of weed species after post-emergence application, EPHHL
[4] = system: Ipomoea hederacea (IPOHE); conditions: 500 g/Ha, 100=total damage to plant, 0=no damage, evaluated after 7 and 14 days, read-out: Control of weed species after post-emergence application, IPOHE
[5] = system: Amaranthus palmeri (AMAPA); conditions: 500 g/Ha, 100=total damage to plant, 0=no damage, evaluated after 7 and 14 days, read-out: Control of weed species after post-emergence application, AMAPA
[6] = system: Echinochloa crus-galli (ECHCG); conditions: 500 g/Ha, 100=total damage to plant, 0=no damage, evaluated after 7 and 14 days, read-out: Control of weed species after post-emergence application, ECHCG
Lolium perenne (LOLPE) = conditions: 500 g/Ha, 100=total damage to plant, 0=no damage, evaluated after 7 and 14 days, read-out: Control of weed species after post-emergence application, LOLPE

SMILES | pest or weed control at 500 g/ha [1] | pest or weed control at 500 g/ha [2] | pest or weed control at 500 g/ha (Setaria faberi (SETFA)) | pest or weed control at 500 g/ha (Eleusine indica (ELEIN)) | pest or weed control at 500 g/ha [3] | pest or weed control at 500 g/ha [4] | pest or weed control at 500 g/ha [5] | pest or weed control at 500 g/ha [6] | pest or weed control at 500 g/ha (Lolium perenne (LOLPE))
O=C(O)C[n+]1ccc(-c2ccns2)cc1 [Compound A86] | 10% | 10% | 10% | 20% | 40% | 10% | 40% | 20% | 0%
O=S(=O)([O-])C[n+]1ccc(-c2ccns2)cc1 [Compound A87] | 0% | 10% | 20% | 0% | 20% | 0% | 0% | 20% | 0%
N#Cc1csc(-c2cc[n+](CCC(=O)O)cc2)n1 [Compound A88] | 0% | 20% | 0% | 0% | 90% | 0% | 10% | 0% | 0%
N#Cc1nsc(-c2cc[n+](CCC(=O)O)cc2)n1 [Compound A89] | 90% | 30% | 80% | 80% | 20% | 10% | 30% | 60% | 10%
Nc1nsc(-c2cc[n+](CCC(=O)O)cc2)n1 [Compound A92] | 80% | 60% | 60% | 20% | 80% | 20% | 100% | 60% | 10%
Nc1nnc(-c2cc[n+](CC(=O)O)cc2)s1 [Compound A94] | 30% | 40% | 10% | 40% | 30% | 10% | 30% | 20% | 10%
Cc1nnc(-c2cc[n+](CC(=O)O)cc2)s1 [Compound A95] | 10% | 30% | 10% | 60% | 10% | 10% | 40% | 20% | 0%
O=S(=O)([O-])C[n+]1ccc(-c2nc(Br)ns2)cc1 [Compound A96] | 100% | 100% | 80% | 90% | 100% | 30% | 100% | 100% | 100%
O=C(O)CC[n+]1ccc(-c2nc(O)ns2)cc1 [Compound A97, 3-[4-(3-hydroxy-1,2,4-thiadiazol-5-yl)pyridin-1-ium-1-yl]propanoic acid bromide] | 0% | 50% | 10% | 10% | 10% | 10% | 0% | 0% | 10%
O=C(O)C[n+]1ccc(-c2nc(O)ns2)cc1 [Compound A98] | 70% | 40% | 20% | 10% | 30% | 10% | 50% | 40% | 0%
